Source: patent US11919918B2, “P2X3 andor P2X2/3 receptor antagonist, pharmaceutical composition comprising same, and use thereof” (BEIJING TIDE PHARMACEUTICAL CO., LTD., priority 2017, dated 2024)
pIC50: −log10 of the molar value.

What was measured:
human P2X3 receptor = human P2X3 receptor (Homo sapiens (Human), UniProt P56373); assay: Inhibitory activity on human P2X3 receptor (calcium 6 dye FLIPR assay, agonist α,β-MeATP); format: cell-based; details: HEK293-P2X3 stably expressing cell line, FLIPR Tetra
human P2X3 receptor, sequence (P56373 whole entry): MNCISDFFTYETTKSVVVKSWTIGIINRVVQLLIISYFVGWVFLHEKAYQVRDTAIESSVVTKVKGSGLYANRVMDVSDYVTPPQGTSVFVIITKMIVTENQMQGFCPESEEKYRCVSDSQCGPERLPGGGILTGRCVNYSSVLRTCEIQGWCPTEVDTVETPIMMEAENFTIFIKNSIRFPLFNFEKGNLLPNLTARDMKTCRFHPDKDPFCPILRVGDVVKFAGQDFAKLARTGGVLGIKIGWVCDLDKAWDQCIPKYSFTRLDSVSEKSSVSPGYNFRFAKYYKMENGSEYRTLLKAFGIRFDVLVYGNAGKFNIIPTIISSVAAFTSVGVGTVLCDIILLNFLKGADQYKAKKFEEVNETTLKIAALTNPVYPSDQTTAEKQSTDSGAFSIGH
Experimental: (§1) Biological Assay: Determination of the Inhibitory Activity of the Compounds on Human P2X3 and P2X2/3 Receptors
(§2) Cells were seeded into a poly-D-lysine-coated 384-well cell culture plate (Corning) at a density of 11,000 cells/well/25 μL of cell inoculation medium, and were cultured in a cell incubator overnight. On the day of the test, the calcium 6 dye was diluted to a 2× concentration with a assay buffer, 25 μL of the 2× calcium 6 dye was added to the 384-well cell culture plate, which was incubated at 37° C. for 2 hours, and then placed at room temperature for further use. The test compound and the agonist, α,β-MeATP were diluted to a 7× concentration with the assay buffer, 10 μL of the 7× test compound was added to the 384-well cell culture plate, which was incubated at room temperature for 15 minutes, and 10 μL of the 7× α,β-MeATP was transferred into the 384-well cell culture plate. The data were measured and analyzed using FLIPR Tetra, and the half inhibitory concentration (IC50) of the test compound on P2X3 and P2X2/3 receptors was calculated with the GraphPad Prism four-parameter equation.
(§3) Cell lines: human embryonic kidney cells HEK293-P2X3 and HEK293-P2X2/3 stably expressing cell lines;
(§4) Complete cell culture medium: DMEM High Glucose (Life Technology), which contained 10% fetal bovine serum, 4 mM GlutaMAX, 1% penicillin-streptomycin, and 350 μg/mL G418;
(§5) Cell inoculation medium: DMEM High Glucose (Life Technology), which contained 2% fetal bovine serum, and 4 mM GlutaMAX;
(§6) Cell culture conditions: 37° C., 5% CO2;
(§7) Assay buffer: HBSS (containing calcium and magnesium ions), which contained 20 mM HEPES;
(§8) Detection equipment: FLIPR Tetra (Molecular Devices);

human P2X2/3 receptor = human P2X2/3 receptor (Homo sapiens (Human), UniProt P56373+Q9UBL9); assay: Inhibitory activity on human P2X2/3 receptor (calcium 6 dye FLIPR assay, agonist α,β-MeATP); format: cell-based; details: HEK293-P2X2/3 stably expressing cell line, FLIPR Tetra
human P2X2/3 receptor, sequence (Q9UBL9 whole entry): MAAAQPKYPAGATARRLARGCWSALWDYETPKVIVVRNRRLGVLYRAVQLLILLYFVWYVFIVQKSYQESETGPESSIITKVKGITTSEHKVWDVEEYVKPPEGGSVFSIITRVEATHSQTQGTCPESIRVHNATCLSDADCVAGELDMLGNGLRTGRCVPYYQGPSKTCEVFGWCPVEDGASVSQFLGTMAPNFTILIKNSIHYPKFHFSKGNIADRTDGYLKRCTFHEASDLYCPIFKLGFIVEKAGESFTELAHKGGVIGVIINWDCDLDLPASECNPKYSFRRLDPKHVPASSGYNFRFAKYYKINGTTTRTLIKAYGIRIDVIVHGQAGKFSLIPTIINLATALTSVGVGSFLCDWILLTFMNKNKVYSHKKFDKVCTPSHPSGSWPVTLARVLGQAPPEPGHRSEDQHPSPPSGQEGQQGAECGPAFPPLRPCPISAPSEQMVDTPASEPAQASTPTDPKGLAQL
human P2X2/3 receptor, sequence (P56373 whole entry): as the sequence (P56373 whole entry) above
Experimental: as §1, §2, §3, §4, §5, §6, §7, §8

pIC50 (human P2X3 receptor) | pIC50 (human P2X2/3 receptor) | SMILES
5.91 |  | COc1cc(Oc2cnc(N)nc2N)c(Br)cn1 [Compound C124, 5-((5-bromo-2-methoxypyridin-4-yl)oxy)pyrimidine-2,4-diamine]
7.09 | 6.91 | C#Cc1cc(Oc2cnc(N)nc2NC(C)C)c(C(C)C)cn1 [Compound C212, 5-((2-ethynyl-5-isopropylpyridin-4-yl)oxy)-N^4-isopropylpyrimidine-2,4-diamine]
6.27 | 6.13 | CC(C)c1cnc(Cl)cc1Sc1cnc(N)nc1N [C84]
7.05 | 6.84 | CC(C)c1cnc(Br)cc1Oc1cnc(NCC(O)CO)nc1N (stereo not shown) [Compound C235, 3-((4-amino-5-((2-bromo-5-isopropyl-pyridin-4-yl)oxy)pyrimidin-2-yl)amino) propane-1,2-diol]
6.50 |  | CC(C)c1cnc(C#Cc2cnc3cccnn23)cc1Oc1cnc(N)nc1N [Compound C195, 5-((2-(imidazo[1,2-b]pyridazin-3-ylethynyl)-5-isopropylpyridin-4-yl)oxy)pyrimidine-2,4-diamine]
6.57 | 6.38 | COc1ccc(C#Cc2cc(Oc3cnc(N)nc3N)c(C(C)C)cn2)cc1 [Compound C136, 5-((5-isopropyl-2-((4-methoxyphenyl)ethynyl)pyridin-4-yl)oxy) pyrimidine-2,4-diamine]
7.14 | 6.90 | C#Cc1cc(Oc2cnc(NC(C)C)nc2N)c(C(C)C)cn1 [Compound C233, 5-((2-ethynyl-5-isopropyl-pyrdin-4-yl)oxy)-N^2-isopropyl-pyrmidine-2,4-diamine]
6.30 | 6.25 | CC(C)c1cnc(C#Cc2ccc(C#N)cc2)cc1Oc1cnc(N)nc1N [Compound C137]
7.11 | 6.69 | CC(C)c1cnc(Br)cc1Sc1cnc(N)nc1N [Compound C85, 5-((2-bromo-5-isopropylpyridin-4-yl)thio)pyrimidine-2,4-diamine]
7.14 | 7.17 | CC(C)c1cnc(Br)cc1Oc1cnc(N)nc1NCCN(C)C [Compound C71, 5-((2-bromo-5-isopropylpyridin-4-yl)oxy)-N^4-(2-(dimethylamino)ethyl)pyrimidine-2,4-diamine]
6.56 | 6.23 | CCN(C)c1cc(Oc2cnc(N)nc2N)c(C(C)C)cn1 [Compound C61, 5-((2-(ethyl(methyl)amino)-5-isopropylpyridin-4-yl)oxy)pyrimidine-2,4-diamine]
6.68 | 6.63 | CC(C)c1cnc(C#Cc2ccccn2)cc1Oc1cnc(N)nc1N [Compound C150, 5-((5-isopropyl-2-(pyridin-2-ylethynyl)pyridin-4-yl)oxy)pyrimidine-2,4-diamine]
6.14 |  | CCSc1cc(Sc2cnc(N)nc2N)c(C(C)C)cn1 [Compound C125, 5-((2-(ethylthio)-5-isopropyl-pyridin-4-yl)thio) pyrimidine-2,4-diamine]
6.79 | 6.47 | CCc1cnc(OC)cc1Oc1cnc(N)nc1N [Compound C165, 5-((5-ethyl-2-methoxy-pyridin-4-yl)oxy) pyrimidine-2,4-diamine]
7.22 | 6.97 | C#Cc1cc(Oc2cnc(NCCO)nc2N)c(C(C)C)cn1 [Compound C230, 2-((4-amino-5-((2-ethynyl-5-isopropyl-pyridin-4-yl)oxy)pyrimidin-2-yl)amino) ethanol]
7.34 | 7.15 | C=C(C)c1cnc(OC)cc1Oc1cnc(N)nc1N [Compound C164, 5-((2-methoxy-5-(prop-1-en-2-yl)pyridin-4-yl)oxy) pyrimidine-2,4-diamine]
6.99 | 6.80 | COc1cc(Oc2cnc(N)nc2N)c(C(C)C)cn1 [Compound C4, 5-((5-isopropyl-2-methoxypyridin-4-yl)oxy)pyrimidine-2,4-diamine]
6.95 | 6.53 | C#Cc1cc(Oc2cnc(N)nc2NC)c(C(C)C)cn1 [Compound C213, 5-((2-ethynyl-5-isopropylpyridin-4-yl)oxy)-N^4-methylpyrimidine-2,4-diamine]
6.42 |  | CC(C)c1cnc(C(N)=O)cc1Oc1cnc(N)nc1N [Compound C129, 4-((2,4-diamino-pyrimidin-5-yl)oxy)-5-isopropyl-picolinamide]
6.94 | 6.37 | C=C(C)c1cc(Oc2cnc(N)nc2N)c(C(C)C)cn1 [Compound C44]
6.68 | 6.66 | CC(C)c1cnc(Br)cc1Oc1cnc(N)nc1NC1CCCCC1 [Compound C180, 5-((2-bromo-5-isopropylpyridin-4-yl)oxy)-N^4-cyclohexyl-pyrimidine-2,4-diamine]

pIC50 (human P2X3 receptor) | pIC50 (human P2X2/3 receptor) | SMILES
6.27 | 6.30 | CC(C)c1cnc(NC2CC2)cc1Oc1cnc(N)nc1N [Compound C119, 5-((2-(cyclopropylamino)-5-isopropylpyridin-4-yl)oxy)pyrimidine-2,4-diamine]
7.12 | 6.98 | C=C(C)c1cnc(SC)cc1Oc1cnc(N)nc1N [Compound C208, 5-((2-(methylthio)-5-(prop-1-en-2-yl)pyridin-4-yl)oxy)pyrimidine-2,4-diamine]
6.83 | 6.63 | CCc1cc(Sc2cnc(N)nc2N)c(C(C)C)cn1 [Compound C127, 5-((2-ethyl-5-isopropylpyridin-4-yl)thio)pyrimidine-2,4-diamine]
6.68 | 6.19 | C=C(C)c1cnc(OC)cc1Cc1cnc(N)nc1N [Compound C196, 5-((2-methoxy-5-(prop-1-en-2-yl)pyridin-4-yl)methyl)pyrimidine-2,4-diamine]
6.53 | 6.37 | C=Cc1cnc(OC)cc1Oc1cnc(N)nc1N [Compound C162, 5-((2-methoxy-5-vinylpyridin-4-yl)oxy) pyrimidine-2,4-diamine]
5.60 | 5.74 | CC(C)c1ncc(Cl)cc1Oc1cnc(N)nc1N [Reference Compound C10, 5-((5-chloro-2-isopropylpyridin-3-yl)oxy)pyrimidine-2,4-diamine, reference compound]
7.13 | 7.25 | CC(C)c1cnc(I)cc1Oc1cnc(N)nc1N [Compound C12, 5-((2-iodo-5-isopropylpyridin-4-yl)oxy)pyrimidine-2,4-diamine]
6.88 | 6.91 | C#Cc1cc(Sc2cnc(N)nc2N)c(C(C)C)cn1 [Compound C88, 5-((2-ethynyl-5-isopropyl-pyrdin-4-yl)thio) pyrimidine-2,4-diamine]
6.31 |  | CC(C)Nc1cc(Oc2cnc(N)nc2N)c(C(C)C)cn1 [Compound C120, 5-((5-isopropyl-2-(isopropylamino)pyridin-4-yl)oxy)pyrimidine-2,4-diamine]
6.36 |  | C=C(OCC)c1cc(Oc2cnc(N)nc2N)c(C(C)C)cn1 [Compound C45, 5-((2-(1-ethoxyvinyl)-5-isopropylpyridin-4-yl)oxy)pyrimidine-2,4-diamine]
6.17 |  | CC(C)c1cnc(Br)cc1Oc1cnc(N)nc1N[C@H](C)C1CC1 [Compound C182, (R)-5-((2-bromo-5-isopropylpyridin-4-yl)oxy)-N^4-(1-cyclopro-pylethyl) pyrimidine-2,4-diamine]
6.20 |  | CC(C)c1cnc(/C=C/c2ccccc2)cc1Oc1cnc(N)nc1N [Compound C138, (E)-5-((5-isopropyl-2-styrylpyridin-4-yl)oxy) pyrimidine-2,4-diamine]
6.13 |  | CC(C)c1c[n+]([O-])c(Br)cc1Oc1cnc(N)nc1N [C1]
6.02 |  | CNc1ncc(Oc2cc(Br)ncc2C(C)C)c(NC)n1 [C227]
6.10 |  | CC(C)c1cnc(-n2cccc2)cc1Oc1cnc(N)nc1N [Compound C38, 5-((5-isopropyl-2-(1H-pyrrol-1-yl)pyridin-4-yl)oxy)pyrimidine-2,4-diamine]
6.13 |  | CC(C)c1cnc(NCCO)cc1Oc1cnc(NCCO)nc1N [Compound C242, 2-((4-((4-amino-2-((2-hydroxyethyl)amino)pyrimidin-5-yl)oxy)-5-isopropyl-pyridin-2-yl)amino)ethanol]
6.10 |  | CC(C)c1cc(Oc2cnc(N)nc2N)c(C(C)C)cn1 [Compound C16, 5-((2,5-diisopropylpyridin-4-yl)oxy)pyrimidine-2,4-diamine]
6.03 |  | CC(C)c1cnc(CC(=O)c2ccc(N(C)C)cc2)cc1Oc1cnc(N)nc1N [Compound C155]
6.46 |  | CC(C)c1cnc(S(N)(=O)=O)cc1Oc1cnc(N)nc1N [Compound C6, 4-((2,4-diaminopyrimidin-5-yl)oxy)-5-isopropylpyridine-2-sulfonamide]
5.93 |  | CC(C)c1cnc(-c2cn[nH]c2)cc1Oc1cnc(N)nc1N [Compound C35, 5-((5-isopropyl-2-(1H-pyrazol-4-yl)pyridin-4-yl)oxy)pyrimidine-2,4-diamine]
6.31 |  | CC(C)c1cnc(C(F)(F)F)cc1Oc1cnc(N)nc1N [Compound C67, 5-((5-isopropyl-2-(trifluoromethyl)pyridin-4-yl)oxy)pyrimidine-2,4-diamine]
